The first test concerns the target Nav 1.7 (Homo sapiens (Human), UniProt Q15858). The test can be described thus: in-vitro Nav 1.7 PX data. The format is cell-based.
Conditions: not given
Nav 1.7, sequence (Q15858 whole entry): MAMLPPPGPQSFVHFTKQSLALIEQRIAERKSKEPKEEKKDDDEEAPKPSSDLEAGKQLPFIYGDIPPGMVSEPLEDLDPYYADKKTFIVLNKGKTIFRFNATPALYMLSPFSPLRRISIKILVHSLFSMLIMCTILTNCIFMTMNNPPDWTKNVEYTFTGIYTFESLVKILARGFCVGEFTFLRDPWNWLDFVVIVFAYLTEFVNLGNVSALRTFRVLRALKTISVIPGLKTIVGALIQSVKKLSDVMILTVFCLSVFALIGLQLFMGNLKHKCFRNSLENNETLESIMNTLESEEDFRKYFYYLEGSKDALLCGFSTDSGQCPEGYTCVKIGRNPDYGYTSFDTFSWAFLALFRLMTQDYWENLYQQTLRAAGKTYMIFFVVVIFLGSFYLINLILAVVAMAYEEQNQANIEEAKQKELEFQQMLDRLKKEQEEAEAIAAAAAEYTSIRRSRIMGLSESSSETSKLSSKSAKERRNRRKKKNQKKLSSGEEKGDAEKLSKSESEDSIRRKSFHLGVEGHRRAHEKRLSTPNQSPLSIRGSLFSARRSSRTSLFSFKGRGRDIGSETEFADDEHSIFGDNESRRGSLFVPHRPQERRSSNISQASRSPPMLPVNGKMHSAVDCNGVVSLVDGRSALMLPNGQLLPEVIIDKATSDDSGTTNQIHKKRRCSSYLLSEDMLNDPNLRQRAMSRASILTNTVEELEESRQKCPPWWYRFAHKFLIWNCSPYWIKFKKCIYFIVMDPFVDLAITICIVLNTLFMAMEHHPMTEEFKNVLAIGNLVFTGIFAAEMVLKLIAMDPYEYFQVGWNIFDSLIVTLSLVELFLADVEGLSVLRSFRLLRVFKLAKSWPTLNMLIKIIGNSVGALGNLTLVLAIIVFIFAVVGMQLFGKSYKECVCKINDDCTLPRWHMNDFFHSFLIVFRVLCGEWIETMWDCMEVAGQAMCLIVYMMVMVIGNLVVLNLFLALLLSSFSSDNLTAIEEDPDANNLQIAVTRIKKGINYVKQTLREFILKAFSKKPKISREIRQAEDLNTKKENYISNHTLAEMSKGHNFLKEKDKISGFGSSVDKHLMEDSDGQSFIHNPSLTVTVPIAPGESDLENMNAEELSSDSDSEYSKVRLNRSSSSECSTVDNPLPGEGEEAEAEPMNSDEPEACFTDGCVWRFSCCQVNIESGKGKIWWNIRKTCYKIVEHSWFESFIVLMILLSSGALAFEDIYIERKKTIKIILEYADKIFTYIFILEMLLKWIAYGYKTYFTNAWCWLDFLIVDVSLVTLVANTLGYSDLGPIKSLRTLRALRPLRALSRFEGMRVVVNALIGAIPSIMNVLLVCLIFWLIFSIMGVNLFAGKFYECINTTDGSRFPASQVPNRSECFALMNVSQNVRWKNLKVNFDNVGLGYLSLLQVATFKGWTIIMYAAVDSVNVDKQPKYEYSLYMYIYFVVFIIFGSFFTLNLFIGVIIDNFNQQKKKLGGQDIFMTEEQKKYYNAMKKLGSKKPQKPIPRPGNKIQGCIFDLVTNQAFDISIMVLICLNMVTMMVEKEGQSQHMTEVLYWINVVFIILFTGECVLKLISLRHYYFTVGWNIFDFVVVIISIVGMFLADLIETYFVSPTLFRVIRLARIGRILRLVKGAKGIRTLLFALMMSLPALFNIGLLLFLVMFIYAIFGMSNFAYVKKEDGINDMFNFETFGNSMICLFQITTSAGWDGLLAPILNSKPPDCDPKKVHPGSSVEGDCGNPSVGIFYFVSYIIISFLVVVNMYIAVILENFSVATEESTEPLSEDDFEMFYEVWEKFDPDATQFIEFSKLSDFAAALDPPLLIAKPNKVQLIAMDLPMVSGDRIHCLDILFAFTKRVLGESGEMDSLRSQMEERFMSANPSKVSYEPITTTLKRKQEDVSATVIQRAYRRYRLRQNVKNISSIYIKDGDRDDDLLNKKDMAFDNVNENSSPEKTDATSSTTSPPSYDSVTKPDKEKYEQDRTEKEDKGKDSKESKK
By IC50 is commonly meant the midpoint of a concentration-inhibition curve. Higher therefore signals weaker potency in that assay. On to `O=S(=O)(Nc1ccon1)c1ccc2c(-c3ccc(-c4cccc(F)c4)cc3CO)nccc2c1` [Example 12, 1-(3′-FLUORO-3-(HYDROXYMETHYL)-[1,1′-BIPHENYL]-4-YL)-N-(ISOXAZOL-3-YL)ISOQUINOLINE-6-SULFONAMIDE 2,2,2-TRIFLUOROACETATE], for which the IC50 amounted to 2.21 µM. This counts as single-digit micromolar.

`COc1nnc(NS(=O)(=O)c2ccc3c(-c4ccc(-c5cc(F)cc(F)c5)cc4OC)nccc3c2)s1` [Example 8, 1-(3′,5′-DIFLUORO-3-METHOXY-[1,1′-BIPHENYL]-4-YL)-N-(5-METHOXY-1,3,4-THIADIAZOL-2-YL)ISOQUINOLINE-6-SULFONAMIDE] displayed an IC50 of 3.29 µM. The IC50 values of the last two compounds are within 1.5-fold of each other.

Compound `COc1cc(-c2cccc(C(F)(F)F)c2)c(F)cc1-c1nncc2cc(S(=O)(=O)Nc3ccon3)ccc12` [Example 3, 1-(2-FLUORO-5-METHOXY-3′-(TRIFLUOROMETHYL)-[1,1′-BIPHENYL]-4-YL)-N-(ISOXAZOL-3-YL)PHTHALAZINE-6-SULFONAMIDE] displayed an IC50 of 0.0305 µM.

As for `COc1cc(N2CC(F)(F)C2)c(C#N)cc1-c1nccc2cc(S(=O)(=O)Nc3ccon3)ccc12` [Example 23, 1-(5-CYANO-4-(3,3-DIFLUOROAZETIDIN-1-YL)-2-METHOXYPHENYL)-N-(ISOXAZOL-3-YL)ISOQUINOLINE-6-SULFONAMIDE], 0.988 µM corresponded to half-maximal inhibition (IC50).

In the case of `COc1cc(C(F)(F)F)ccc1-c1ncnc2cc(S(=O)(=O)Nc3ccon3)ccc12` [Example 38, N-(ISOXAZOL-3-YL)-4-(2-METHOXY-4-(TRIFLUOROMETHYL)PHENYL)QUINAZOLINE-7-SULFONAMIDE], inhibition was half-maximal at 2.57 µM (IC50).

The same test, now with this note: PatchXpress (PX), in vitro.
With `COc1cc(-c2ccc(C)c(Cl)c2)c(Cl)cc1-c1nccc2cc(S(=O)(=O)Nc3ccon3)ccc12` [Example 96, 1-(2,3′-dichloro-5-methoxy-4′-methyl-4-biphenylyl)-N-3-isoxazolyl-6-isoquinolinesulfonamide], the IC50 is 0.0738 µM.

The compound `COc1cc(-c2ccc(Cl)c(C)c2)c(F)cc1-c1nccc2cc(S(=O)(=O)Nc3cccnn3)ccc12` [Example 87, 1-(4′-chloro-2-fluoro-5-methoxy-3′-methyl-4-biphenylyl)-N-3-pyridazinyl-6-isoquinolinesulfonamide] came in with an IC50 of 0.178 µM.

On to `COc1nc(N(C)CC(C)C)ccc1-c1nccc2cc(S(=O)(=O)Nc3ccncn3)ccc12` [Example 68, 1-(2-methoxy-6-(methyl(2-methylpropyl)amino)-3-pyridinyl)-N-4-pyrimidinyl-6-isoquinolinesulfonamide], for which the IC50 was found to be 2.88 µM.

In the case of `COc1nc(N2CCCC2)ccc1-c1nccc2cc(S(=O)(=O)Nc3ccncn3)ccc12` [Example 72, 1-(2-methoxy-6-(1-pyrrolidinyl)-3-pyridinyl)-N-4-pyrimidinyl-6-isoquinolinesulfonamide], the midpoint of inhibition, the IC50, lay at 7.71 µM.

On to `COc1nc(NCC(C)(C)C)ccc1-c1nccc2cc(S(=O)(=O)Nc3ccncn3)ccc12` [Example 47, 1-(2-METHOXY-6-(NEOPENTYLAMINO)PYRIDIN-3-YL)-N-(PYRIMIDIN-4-YL)ISOQUINOLINE-6-SULFONAMIDE], for which 0.899 µM corresponded to half-maximal inhibition (IC50). Against the preceding compound, the IC50 is about 8.6-fold lower.

On to `COc1cc(-c2ccc(Cl)c(C)c2)c(F)cc1-c1nccc2cc(S(=O)(=O)Nc3ccon3)ccc12` [Example 90, 1-(4′-chloro-2-fluoro-5-methoxy-3′-methyl-4-biphenylyl)-N-3-isoxazolyl-6-isoquinolinesulfonamide], for which inhibition was half-maximal at 0.0595 µM (IC50). Against the preceding compound, the IC50 is about 15-fold lower.

Still in this test, the particulars now being: in-vitro Nav 1.7 PX data.
The compound `Cc1ccc(OCC2CC2)cc1-c1nccc2cc(S(=O)(=O)Nc3ccncn3)ccc12` [Example 153, 1-(5-(cyclopropylmethoxy)-2-methylphenyl)-N-4-pyrimidinyl-6-isoquinolinesulfonamide] came in with an IC50 of 7.68 µM. This lies in the single-digit micromolar range.

Regarding `COc1cc(-c2cc(F)cc(F)c2)ccc1-c1nccc2cc(S(=O)(=O)Nc3cnccn3)ccc12` [Example 140, 1-(3′,5′-difluoro-3-methoxy-4-biphenylyl)-N-2-pyrazinyl-6-isoquinolinesulfonamide], 0.652 µM corresponded to half-maximal inhibition (IC50).

Compound `COc1cc(C#N)c(-c2cc(F)cc(F)c2)cc1-c1nccc2cc(S(=O)(=O)Nc3ccon3)ccc12` [Example 139, 1-(6-cyano-3′,5′-difluoro-4-methoxy-3-biphenylyl)-N-3-isoxazolyl-6-isoquinolinesulfonamide] showed an IC50 of 15.3 µM.

`COc1cc(-c2cc(F)cc(F)c2)ccc1-c1nccc2cc(S(=O)(=O)Nc3ncc(C(F)(F)F)o3)ccc12` [Example 143, 1-(3′,5′-difluoro-3-methoxy-4-biphenylyl)-N-(5-(trifluoromethyl)-1,3-oxazol-2-yl)-6-isoquinolinesulfonamide] yielded an IC50 of 3.22 µM.

`COc1cc(-c2nccc3cc(S(=O)(=O)Nc4ccon4)ccc23)c(C)cc1-c1ccc(Cl)c(C)c1` [Example 35] had an IC50 of 3.3 µM.

The compound `COc1ccc(F)cc1-c1cc(C)c(-c2ncnc3cc(S(=O)(=O)Nc4ccon4)ccc23)cc1OC` [Example 168, 4-(5′-fluoro-2,2′-dimethoxy-5-methyl-4-biphenylyl)-N-3-isoxazolyl-7-quinazolinesulfonamide] came in with an IC50 of 8.54 µM.

Turning to `O=S(=O)(Nc1nncs1)c1ccc2c(-c3ccc(-c4cccc(F)c4)cc3CO)nccc2c1` [Example 11, 1-(3′-FLUORO-3-(HYDROXYMETHYL)-[1,1′-BIPHENYL]-4-YL)-N-(1,3,4-THIADIAZOL-2-YL)ISOQUINOLINE-6-SULFONAMIDE], the IC50 stood at 1.6 µM.

Turning to `COc1cc(-c2cccnc2OC)ccc1-c1nccc2cc(S(=O)(=O)Nc3nncs3)ccc12` [Example 166, 1-(2-methoxy-4-(2-methoxy-3-pyridinyl)phenyl)-N-1,3,4-thiadiazol-2-yl-6-isoquinolinesulfonamide], the IC50 is 0.794 µM.

The compound `COc1cc(NS(=O)(=O)c2ccc3c(-c4ccc(-c5cc(F)cc(F)c5)cc4OC)nccc3c2)no1` [Example 149, 1-(3′,5′-difluoro-3-methoxy-4-biphenylyl)-N-(5-methoxy-3-isoxazolyl)-6-isoquinolinesulfonamide] displayed an IC50 of 1.46 µM.

Consider `COc1cc(-c2cc(F)cc(F)c2)ccc1-c1nccc2cc(S(=O)(=O)Nc3ccccn3)ccc12` [Example 141, 1-(3′,5′-difluoro-3-methoxy-4-biphenylyl)-N-2-pyridinyl-6-isoquinolinesulfonamide], for which the IC50 was determined as 1.01 µM.

The test is the same for the next values; noted with them: in-vitro PX.
`COc1cc(-c2cc(F)cnc2OC)c(Cl)cc1-c1ncnc2cc(S(=O)(=O)Nc3ccon3)ccc12` [Example 214, 4-(5-chloro-4-(5-fluoro-2-methoxy-3-pyridinyl)-2-methoxyphenyl)-N-3-isoxazolyl-7-quinazolinesulfonamide] came in with an IC50 of 0.0198 µM.

As for `COc1cc(-c2cccc(F)c2)ccc1-c1ccnc2cc(S(=O)(=O)Nc3nncs3)ccc12` [Example 210, 4-(3′-fluoro-3-methoxy-4-biphenylyl)-N-1,3,4-thiadiazol-2-yl-7-quinolinesulfonamide], the IC50 was found to be 1.05 µM.

Compound `COc1cc(-c2ccc(F)c(C)c2)c(Cl)cc1-c1ncnc2cc(S(=O)(=O)Nc3ccon3)ccc12` [Example 213, 4-(2-chloro-4′-fluoro-5-methoxy-3′-methyl-4-biphenylyl)-N-3-isoxazolyl-7-quinazolinesulfonamide] displayed a concentration for half-maximal inhibition (IC50) of 0.0382 µM.

Staying with this test, now noted: in-vitro PX (PatchXpress) data.
On to `COc1cc(Oc2ccc(F)cn2)ccc1-c1nccc2cc(S(=O)(=O)Nc3ccon3)ccc12` [Example 195, 1-(4-((5-fluoro-2-pyridinyl)oxy)-2-methoxyphenyl)-N-3-isoxazolyl-6-isoquinolinesulfonamide], for which the IC50 was found to be 1.61 µM.

In turn, `O=S(=O)(Nc1ccncn1)c1ccc2c(-c3ccc(C(F)(F)F)cc3C3CC3)ncnc2c1` [Example 36, 4-(2-CYCLOPROPYL-4-(TRIFLUOROMETHYL)-PHENYL)-N-(PYRIMIDIN-4-YL)QUINAZOLINE-7-SULFONAMIDE] displayed an IC50 of 0.744 µM. Against the preceding compound, the IC50 is about 2.2-fold lower.

As to `COc1cc(-c2cccc(F)c2)ccc1-c1n[nH]c(=O)c2cc(S(=O)(=O)Nc3nncs3)ccc12` [Example 18, 1-(3′-FLUORO-3-METHOXY-[1,1′-BIPHENYL]-4-YL)-4-OXO-N-(1,3,4-THIADIAZOL-2-YL)-3,4-DIHYDROPHTHALAZINE-6-SULFONAMIDE], the IC50 stood at 1.42 µM. Against the preceding compound, the IC50 is about 1.9-fold higher.

In the case of `COc1cc(Oc2cc(F)cc(F)c2)ccc1-c1nccc2cc(S(=O)(=O)Nc3ccncn3)ccc12` [Example 178, 1-(4-(3,5-difluorophenoxy)-2-methoxyphenyl)-N-4-pyrimidinyl-6-isoquinolinesulfonamide], the IC50 amounted to 18.7 µM.

The same test, now with this note: in-vitro PX data.
For `COc1cc(-c2cc(F)cc(F)c2)ccc1-c1nccc2cc(S(=O)(=O)Nc3cncc(C)n3)ccc12` [Example 131, 1-(3′,5′-difluoro-3-methoxy-4-biphenylyl)-N-(6-methyl-2-pyrazinyl)-6-isoquinolinesulfonamide], half-maximal inhibition (IC50) required 1.63 µM.

`COc1cc(-c2cc(F)cc(F)c2)ccc1-c1nccc2cc(S(=O)(=O)Nc3nnc(C)s3)ccc12` [Example 133, 1-(3′,5′-difluoro-3-methoxy-4-biphenylyl)-N-(5-methyl-1,3,4-thiadiazol-2-yl)-6-isoquinolinesulfonamide] registered an IC50 of 1.56 µM.

On to `COc1cc(-c2cccc(C(F)(F)F)c2)c(F)cc1-c1ncnc2cc(S(=O)(=O)Nc3ccon3)ccc12` [Example 102, 4-(2-fluoro-5-methoxy-3′-(trifluoromethyl)-4-biphenylyl)-N-3-isoxazolyl-7-quinazolinesulfonamide], for which the IC50 turned out to be 0.0229 µM.

As to `COc1nsc(NS(=O)(=O)c2ccc3c(-c4ccc(-c5cc(F)cc(F)c5)cc4OC)nccc3c2)n1` [Example 134, 1-(3′,5′-difluoro-3-methoxy-4-biphenylyl)-N-(3-methoxy-1,2,4-thiadiazol-5-yl)-6-isoquinolinesulfonamide], the IC50 is 1.28 µM. Compared with the last compound, the IC50 is about 56-fold higher.

Compound `COc1cc(-c2cccc(F)c2)c(C#N)cc1-c1nccc2cc(S(=O)(=O)Nc3ncccn3)ccc12` [Example 109, 1-(2-cyano-3′-fluoro-5-methoxy-4-biphenylyl)-N-2-pyrimidinyl-6-isoquinolinesulfonamide] displayed an IC50 of 0.241 µM.

For the compound `COc1cc(-c2ccc(Cl)c(F)c2)c(Cl)cc1-c1nccc2cc(S(=O)(=O)Nc3ccon3)ccc12` [Example 101, 1-(2,4′-dichloro-3′-fluoro-5-methoxy-4-biphenylyl)-N-3-isoxazolyl-6-isoquinolinesulfonamide], the IC50 worked out at 0.0739 µM.

Source of the values: patent publication US9776995B2, “Bicyclic sulfonamide compounds as sodium channel inhibitors” (AMGEN INC., priority 2013, dated 2017).
